Reference: PubChem BioAssay (NCI)
Values joined by “and” are separate entries in the source; they are usually repeats but may differ in a detail not shown here. Identical values can stand only once.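 Each compound was tested at five concentrations against cells in 96-well plates for 48 hours. GI50 is the concentration that inhibits growth by half. Definition used: TGI = concentration required for complete inhibition of growth.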

How the values were obtained:
Assay in all cases: inhibition of tumour cell growth, NCI panel, 48 h
[1] = tested on: A549 NSCLC
[2] = tested on: CAKI-1 renal
[3] = tested on: HOP-92 NSCLC
[4] = tested on: M14 melanoma
[5] = tested on: OVCAR-5 ovarian
[6] = tested on: OVCAR-8 ovarian
[7] = tested on: SNB-75 CNS
[8] = tested on: UACC-62 melanoma
[9] = tested on: MOLT-4 leukemia
[10] = tested on: DU-145 prostate

SMILES | GI50 [1] | TGI [1] | GI50 [2] | TGI [2] | GI50 [3] | TGI [3] | GI50 [4] | TGI [4] | GI50 [5] | TGI [5] | GI50 [6] | TGI [6] | GI50 [7] | TGI [7] | GI50 [8] | TGI [8] | GI50 [9] | TGI [9] | GI50 [10] | TGI [10]
CC(=O)OC(C(=O)[O][Ge]([CH3])([CH3])[CH3])c1ccccc1 (stereo unspecified) | > 100 µM | > 100 µM | > 100 µM | > 100 µM | > 100 µM | > 100 µM | > 100 µM | > 100 µM | > 100 µM | > 100 µM | > 100 µM | > 100 µM | > 100 µM | > 100 µM | > 100 µM | > 100 µM | – | – | – | –
CCCCCCCCCCCCC(O)C1CCC(C(O)CCCCC(O)CCCCCC2CC(CC(C)=O)C(=O)O2)O1 (stereo unspecified) | 1.55 µM | 18.7 µM | 2.29 µM | 22.3 µM | 3.38 µM | 9.29 µM and 12.5 µM | 1.66 µM | 3.33 µM and 22.2 µM | 3.92 µM | 23.6 µM | 1.38 µM | 3.48 µM and 20.9 µM | 1.25 µM | 5.42 µM and 16.4 µM | 1.38 µM | 3.66 µM and 16.3 µM | 1.94 µM and 2.05 µM | 35 µM | – | –
O=C(/C=C(/C=C/c1cccc2[nH]ccc12)OB(F)F)/C=C/c1cccc2[nH]ccc12 | 1.62 µM | 14.2 µM | 0.876 µM | 3.13 µM | 1.86 µM | 5.15 µM | 1.07 µM | 6.93 µM | 1.42 µM | 3.59 µM | 0.347 µM | > 100 µM | – | – | 0.833 µM | 2.97 µM | 0.385 µM | 3.72 µM | 0.753 µM | 2.07 µM
O=C(O)c1ccc(CSc2nc3ccccc3[nH]2)cc1 | > 100 µM | > 100 µM | > 100 µM | > 100 µM | > 100 µM | > 100 µM | > 100 µM | > 100 µM | > 100 µM | > 100 µM | > 100 µM | > 100 µM | > 100 µM | > 100 µM | – | – | > 100 µM | > 100 µM | > 100 µM | > 100 µM
CC(=O)[O-].CC(=O)[O-].O=C([CH-]C(=O)c1ccccc1)c1ccccc1.[Nd+3].[OH3+] | 28.2 µM | 84.3 µM | 27.9 µM | 91.3 µM | 20.1 µM | 63.8 µM | 20.7 µM | 53 µM | 68.4 µM | > 100 µM | 15.8 µM | > 100 µM | 6.24 µM | 32.9 µM | 16.5 µM | 48.6 µM | 10.6 µM | > 100 µM | – | –
CC1(C)CC[C@]23CC[C@]4(C)[C@H](CC[C@@H]5[C@@]6(C)CCCNC(C)(C)[C@@H]6CC[C@]54C)[C@H]2[C@H]1OC3 | 1.81 µM | 3.43 µM | 1.62 µM | 2.97 µM | – | – | 1.77 µM | 3.31 µM | 1.6 µM | 3.04 µM | – | – | 1.5 µM | 2.94 µM | 1.79 µM | 3.21 µM | 2.1 µM | 5.04 µM | 1.74 µM | 3.23 µM
CC(=O)OCc1nnn2c1C(OC(C)=O)CC2 (stereo unspecified) | – | > 100 µM | – | > 100 µM | – | > 100 µM | – | > 100 µM | – | > 100 µM | – | > 100 µM | – | > 100 µM | – | > 100 µM | – | > 100 µM | – | –
CC(=O)OC(COc1ccc2c(c1)[n+]([O-])nc(N)[n+]2[O-])CN1CCCCC1 (stereo unspecified) | – | 40.7 µM | – | > 100 µM | – | > 100 µM | – | 38.7 µM | – | 61.2 µM | – | 41 µM | – | 46.7 µM | – | – | – | 14.8 µM | – | 54.9 µM
CCOC(=O)C(C(=O)OCC)=C1C=C(c2ccccc2)c2ccccc21 | – | > 100 µM | – | – | – | 46.8 µM | – | > 100 µM | – | > 100 µM | – | > 100 µM | – | > 100 µM | – | > 100 µM | – | > 100 µM | – | –
CCOC(=O)CCc1c(C)c2c(OC)cc(OC)cc2oc1=O | – | > 100 µM | – | > 100 µM | – | > 100 µM | – | > 100 µM | – | > 100 µM | – | > 100 µM | – | > 100 µM | – | – | – | – | – | –
COC(=O)C1c2cc3c(c(O)c2CCC1(C)O)C(=O)c1c(O)cc2c(c1C3=O)OC1OC2(C)C(O)C(N(C)C)C1O (stereo unspecified) | – | 0.916 µM | – | – | – | – | – | 5.33 µM | – | 1.03 µM | – | 0.591 µM | – | 1.37 µM | – | 1.91 µM | – | 0.357 µM | – | 0.561 µM
N#CC1=C(N)N=C(N2CCOCC2)C(C#N)C12Nc1ccccc1S2 (stereo unspecified) | 33.3 µM | > 100 µM | 12.6 µM | 44.4 µM | 41.3 µM | > 100 µM | 35 µM | 65.4 µM | 45.1 µM | > 100 µM | 4.23 µM | 59.5 µM | – | – | 18.8 µM | 40.9 µM | 23.4 µM | > 100 µM | 19.2 µM | 56.5 µM
Cc1ccc(NC(=S)NNC(=S)Nc2ccc(C)cc2)cc1 | 6.03 µM | > 100 µM | 3.66 µM | > 100 µM | 6.43 µM | > 100 µM | 3.54 µM | > 100 µM | > 100 µM | > 100 µM | 7.95 µM | > 100 µM | 3.39 µM | 67.3 µM | 5.17 µM | > 100 µM | – | – | 6.89 µM | 59.2 µM
CCOC(=O)C1=C(C)NC2SC(=O)/C(=C\c3cccc(Cl)c3)N2C1c1ccccc1 (stereo unspecified) | > 100 µM | > 100 µM | > 100 µM | > 100 µM | > 100 µM | > 100 µM | > 100 µM | > 100 µM | > 100 µM | > 100 µM | > 100 µM | > 100 µM | > 100 µM | > 100 µM | > 100 µM | > 100 µM | – | – | > 100 µM | > 100 µM
CCCCCOC(=O)Nc1nc(=O)n(C2OC(C)C(O)C2O)cc1F (stereo unspecified) | – | – | > 10000 µM | > 10000 µM | > 10000 µM | > 10000 µM | > 10000 µM | > 10000 µM | > 10000 µM | > 10000 µM | > 10000 µM | > 10000 µM | – | – | – | – | > 10000 µM | > 10000 µM | – | –
COC(=O)C1C(C(=O)O)C2(c3ccccc3)C(=O)C1(c1ccccc1)C(c1ccc(OC)cc1)=C2c1ccc(OC)cc1 (stereo unspecified) | 15.7 µM | 33.5 µM | 20.9 µM | 43.6 µM | 4.87 µM | 28.4 µM | 18.6 µM | 34.8 µM | 20.8 µM | 45.9 µM | 15.9 µM | 30.8 µM | – | – | 18.8 µM | 35.2 µM | 18 µM | 43.4 µM | 19.9 µM | 49.8 µM
CCN(N=O)C1C2(CCCC2)NC(=O)C12CCCC2 (stereo unspecified) | – | > 100 µM | – | – | – | – | – | > 100 µM | – | > 100 µM | – | > 100 µM | – | > 100 µM | – | > 100 µM | – | > 100 µM | – | –
